{"source": "paper PMC12040169", "about": "(PLOS Biology, 2025)", "data": [{"assay": "in vitro", "conditions": "human, hela cells, % viability", "units": {"viability at 28.5 h, 10 µM": "%"}, "values": [{"molecule": "Cc1cc(N2CCN(C(=O)OC(C)(C)C)CC2)nc(N)n1", "note": "[CBK001843]", "viability at 28.5 h, 10 µM": 110}, {"molecule": "Cn1c(=O)n(C)c2cc(S(=O)(=O)NCC3(N)CCOCC3)ccc21", "note": "[CBK306266]", "viability at 28.5 h, 10 µM": 113}, {"molecule": "C(CSC1=NCCN1)CSC1=NCCN1", "note": "[CBK278217B]", "viability at 28.5 h, 10 µM": 106}, {"molecule": "CC(C)(C)c1cc(CN)c(C(=O)O)o1", "note": "[CBK266510C]", "viability at 28.5 h, 10 µM": 94.3}, {"molecule": "CCOC(=O)C(CNC(=O)CNC(=O)c1ccoc1)Cc1ccccc1", "note": "(stereo not drawn) [CBK305971]", "viability at 28.5 h, 10 µM": 92.4}, {"molecule": "O=C(NCCn1nc2c(cc1=O)CCCCC2)c1cccs1", "note": "[CBK283277]", "viability at 28.5 h, 10 µM": 100}, {"molecule": "C=CCn1c(Cc2csc(NC(=O)c3cccc(NC(C)=O)c3)n2)n[nH]c1=S", "note": "[CBK297891]", "viability at 28.5 h, 10 µM": 83.4}, {"molecule": "Cc1[nH]c(=O)[nH]c(=O)c1S(=O)(=O)Nc1ccc(S(N)(=O)=O)cc1", "note": "[CBK262123]", "viability at 28.5 h, 10 µM": 91.7}, {"molecule": "COc1ccc(C(=O)N[C@H]2C[C@@H]3C(=O)N[C@H]4CCN(C(=O)C5CCC5)[C@@H]4C(=O)N3C2)cc1", "note": "[CBK289266]", "viability at 28.5 h, 10 µM": 89.3}, {"molecule": "CCN(CC)C(=O)NC(C)c1cccc(S(=O)(=O)NC)c1", "note": "(stereo not drawn) [CBK305134]", "viability at 28.5 h, 10 µM": 94.4}, {"molecule": "COc1ccc(OC)c(S(=O)(=O)N2CCCC(C(=O)O)C2)c1", "note": "(stereo not drawn) [CBK269225]", "viability at 28.5 h, 10 µM": 95}, {"molecule": "O=C(CCCn1ccnc1)N1CCc2[nH]c3ccccc3c2C1", "note": "[CBK281872]", "viability at 28.5 h, 10 µM": 101}, {"molecule": "Cc1cc(S(=O)(=O)NC(=O)CC2CCOc3ccccc32)c(C)o1", "note": "(stereo not drawn) [CBK304499]", "viability at 28.5 h, 10 µM": 105}, {"molecule": "O=C(O)c1ccc(N2C(=O)CC(N3CCN(C/C=C/c4ccccc4)CC3)C2=O)cc1", "note": "(stereo not drawn) [CBK261402]", "viability at 28.5 h, 10 µM": 92.6}, {"molecule": "Cn1cc(C(C(=O)O)N2CCN(c3ccccc3)CC2)c2cc(C(=O)O)ccc21", "note": "(stereo not drawn) [CBK286627]", "viability at 28.5 h, 10 µM": 115}, {"molecule": "Cc1ccc(S(=O)(=O)NC(C)(C)C(=O)O)cc1", "note": "[CBK263840]", "viability at 28.5 h, 10 µM": 88.8}, {"molecule": "NC(=O)c1ccc(NC(=O)N2CCc3ccccc3C2)cc1", "note": "[CBK155299]", "viability at 28.5 h, 10 µM": 80.9}, {"molecule": "COc1ccc(-c2ccc(OC)cc2C(=O)Nc2ccc(Cn3cncn3)cc2)cc1", "note": "[CBK285588]", "viability at 28.5 h, 10 µM": 109}, {"molecule": "C[C@]12CN(Cc3ccc(F)cc3)C[C@H]1NC(=O)c1ccccc1C2=O", "note": "[CBK284728]", "viability at 28.5 h, 10 µM": 87.8}, {"molecule": "CCN(CC)CCCCSc1ccc(O)cc1", "note": "[CBK261785C]", "viability at 28.5 h, 10 µM": 95.7}, {"molecule": "OCCCn1cc(CN2CCC(CO)C2)c2ccccc21", "note": "(stereo not drawn) [CBK282114]", "viability at 28.5 h, 10 µM": 98.6}, {"molecule": "CN1C(=O)C(CC(=O)NCCCc2ccc(F)cc2)c2ccccc21", "note": "(stereo not drawn) [CBK282474]", "viability at 28.5 h, 10 µM": 106}, {"molecule": "Cn1cc(C(=O)N2CCc3ncc(Cl)cc3C2)ccc1=O", "note": "[CBK285130]", "viability at 28.5 h, 10 µM": 100}, {"molecule": "O=C1c2ccccc2C2OCc3ccccc3N12", "note": "(stereo not drawn) [CBK109952]", "viability at 28.5 h, 10 µM": 105}, {"molecule": "Cc1cc(NC(=O)N2CCN(CCNC(=O)C3CCCC3)CC2)no1", "note": "[CBK305064]", "viability at 28.5 h, 10 µM": 100}, {"molecule": "O=c1[nH]c2ncc(-c3cncc4ccccc34)nc2n1C1CCC(O)CC1", "note": "(stereo not drawn) [CBK065013]", "viability at 28.5 h, 10 µM": 108}, {"molecule": "CN1CCN(CC(CC(=O)Nc2ccccc2)C(=O)O)CC1", "note": "(stereo not drawn) [CBK286746]", "viability at 28.5 h, 10 µM": 81.8}, {"molecule": "Cc1ccccc1C(=O)N1CCC(O)(Cn2ccnc2C)CC1", "note": "[CBK284950]", "viability at 28.5 h, 10 µM": 105}, {"molecule": "N#CCCn1cc(C(=O)Oc2ccc(-c3ccccc3)cc2)c(-c2cccc([N+](=O)[O-])c2)n1", "note": "[CBK267968]", "viability at 28.5 h, 10 µM": 105}, {"molecule": "COc1cc(C=O)ccc1Oc1nnnn1-c1ccc(C(=O)O)cc1", "note": "[CBK267071]", "viability at 28.5 h, 10 µM": 95.5}, {"molecule": "CCOc1ccc2[nH]c(C(=O)N(C)CCN3CCCCC3)c(C)c2c1", "note": "[CBK282699]", "viability at 28.5 h, 10 µM": 86.3}, {"molecule": "CSc1nnc(-c2ccco2)n1-c1cccc(Cl)c1C", "note": "[CBK067723]", "viability at 28.5 h, 10 µM": 93.1}, {"molecule": "c1ccc(-c2nccnc2NCc2ccco2)cc1", "note": "[CBK088642]", "viability at 28.5 h, 10 µM": 94.3}, {"molecule": "Cc1nc2ccccc2c(=O)n1CC(=O)NCc1ccccc1", "note": "[CBK072830]", "viability at 28.5 h, 10 µM": 91.9}, {"molecule": "CN1CCc2c1nc1ccccc1c2NC(=O)CN1CCCCCC1", "note": "[CBK278298G]", "viability at 28.5 h, 10 µM": 90.6}, {"molecule": "O=C(CSc1nnc2[nH]c(=O)ccn12)NCc1ccccc1Cl", "note": "[CBK287684]", "viability at 28.5 h, 10 µM": 95.1}]}]}
